Measurements from patent publication US20130225427A1, “METHOD FOR PREDICTION OF RESPONSE TO IMMUNE MEDIATED DISEASE THERAPEUTICS” (SANFORD-BURNHAM MEDICAL RESEARCH INSTITUTE, priority 2010, published 2013).

Assays:
Assay type in all cases: in vivo, human
APC = assay: Taqman gene expression in APC from PBMC of treated RA clinical responders; settings: compared to initiation of the treatment
From the text: (§1) The aim of this study is to identify clusters of immune pathways characteristic of responsiveness that are specific to treatment. […] We show as summary a color coded table. We clustered individual immune functions according to cut off values identified in preliminary studies (25% change compared with baseline at active disease). The Table 1 depicts the differences for patients who are all responders and therefore otherwise clinically indistinguishable ([…]).
(§2) PBMCs from each patient were incubated for 48 hours with plate bound anti-CD3/CD28. Non-adherent cells were collected to enrich T cells by pan T-cell MACS. T cells were FACS sorted on CD4+CD127+ (TE) and CD4+CD25+CD127− (nTreg), and CD4+CD25+PD1+CD127− (PD1+ Treg). Aliquots of all sorted cells were collected for TaqMan. The remainder of the APCs and TE were cultured with isolated Treg. CFSE was added to the TE cells and cultured for a total of 4 days with anti-CD3/CD28.

Te Cells = assay: Taqman gene expression in sorted CD4+CD127+ effector T cells (TE) of treated RA clinical responders; settings: compared to initiation of the treatment
From the text: as §1, §2

nTreg = assay: Taqman gene expression in sorted CD4+CD25+CD127− nTreg of treated RA clinical responders; settings: compared to initiation of the treatment
From the text: as §1, §2

PD1 + Treg = assay: Taqman gene expression in sorted CD4+CD25+PD1+CD127− PD1+ Treg of treated RA clinical responders; settings: compared to initiation of the treatment
Protocol: The aim of this study is to identify clusters of immune pathways characteristic of responsiveness that are specific to treatment. […] We clustered individual immune functions according to cut off values identified in preliminary studies (25% change compared with baseline at active disease).
as §2

Treg = assay: Suppression activity of Treg on CFSE-labelled TE proliferation; settings: when clinical response is seen (FIG. 3)
Protocol: as §2

Question: For `CN(Cc1cnc2nc(N)nc(N)c2n1)c1ccc(C(=O)N[C@@H](CCC(=O)O)C(=O)O)cc1` [MTX, methotrexate], which “B7-H1 up or down regulated” value (APC) is on record?
Answer: up regulated (cut off values identified in preliminary studies (25% change compared with baseline at active disease))

Question: What about the “B7-H2 up or down regulated” value (APC) of the same compound?
Answer: up regulated (cut off values identified in preliminary studies (25% change compared with baseline at active disease))

Question: What about the “B7-H4 up or down regulated” value (APC) of the same compound?
Answer: up regulated (cut off values identified in preliminary studies (25% change compared with baseline at active disease))

Question: What about the “FAS-L up or down regulated” value (APC) of the same compound?
Answer: up regulated (cut off values identified in preliminary studies (25% change compared with baseline at active disease))

Question: What about the “IL-10 up or down regulated” value (APC) of the same compound?
Answer: up regulated (cut off values identified in preliminary studies (25% change compared with baseline at active disease))

Question: And the “INFγ up or down regulated” value (APC)?
Answer: up regulated (cut off values identified in preliminary studies (25% change compared with baseline at active disease))

Question: And the “TGFβ up or down regulated” value (APC)?
Answer: up regulated (cut off values identified in preliminary studies (25% change compared with baseline at active disease))

Question: And the “percent change in expression of B7-H1” value (APC)?
Answer: +106.4%

Question: And the “percent change in expression of B7-H2” value (APC)?
Answer: +98.4%

Question: And the “percent change in expression of B7-H4” value (APC)?
Answer: +118.6%

Question: What about the “percent change in expression of FAS-L” value (APC) of the same compound?
Answer: +83.1%

Question: And the “percent change in expression of IL-10” value (APC)?
Answer: +28.6%

Question: And the “percent change in expression of INFγ” value (APC)?
Answer: +219.9%

Question: And the “percent change in expression of TGFβ” value (APC)?
Answer: +31.1%

Question: What about the “IL-10 up or down regulated” value (Te Cells) of the same compound?
Answer: no change (cut off values identified in preliminary studies (25% change compared with baseline at active disease))

Question: And the “IL-17A up or down regulated” value (Te Cells)?
Answer: no change (cut off values identified in preliminary studies (25% change compared with baseline at active disease))

Question: What about the “TGFβ up or down regulated” value (Te Cells) of the same compound?
Answer: up regulated (cut off values identified in preliminary studies (25% change compared with baseline at active disease))

Question: And the “percent change in expression of FAS-L” value (Te Cells)?
Answer: 20.5%

Question: And the “percent change in expression of GATA-3” value (Te Cells)?
Answer: −21.6%

Question: And the “percent change in expression of ICOS” value (Te Cells)?
Answer: −7.2%

Question: What about the “percent change in expression of IL-10” value (Te Cells) of the same compound?
Answer: +15.2%

Question: What about the “percent change in expression of IL-17A” value (Te Cells) of the same compound?
Answer: +0.3%

Question: What about the “percent change in expression of INFγ” value (Te Cells) of the same compound?
Answer: +1.7%

Question: And the “percent change in expression of PD-1” value (Te Cells)?
Answer: +5.6%

Question: What about the “percent change in expression of TGFβ” value (Te Cells) of the same compound?
Answer: +150.8%

Question: What about the “percent change in expression of TNFα” value (Te Cells) of the same compound?
Answer: 2.3%

Question: What about the “percent change in expression of Tbet” value (Te Cells) of the same compound?
Answer: −17.1%

Question: And the “CTLA4 up or down regulated” value (nTreg)?
Answer: up regulated (cut off values identified in preliminary studies (25% change compared with baseline at active disease))

Question: What about the “FoxP3 up or down regulated” value (nTreg) of the same compound?
Answer: up regulated (cut off values identified in preliminary studies (25% change compared with baseline at active disease))

Question: What about the “Granzyme B up or down regulated” value (nTreg) of the same compound?
Answer: up regulated (cut off values identified in preliminary studies (25% change compared with baseline at active disease))

Question: And the “INFγ up or down regulated” value (nTreg)?
Answer: up regulated (cut off values identified in preliminary studies (25% change compared with baseline at active disease))

Question: And the “PD1 up or down regulated” value (nTreg)?
Answer: up regulated (cut off values identified in preliminary studies (25% change compared with baseline at active disease))

Question: What about the “TGFβ up or down regulated” value (nTreg) of the same compound?
Answer: up regulated (cut off values identified in preliminary studies (25% change compared with baseline at active disease))

Question: And the “percent change in expression of CTLA4” value (nTreg)?
Answer: +684.0%

Question: What about the “percent change in expression of FoxP3” value (nTreg) of the same compound?
Answer: 439.0%

Question: What about the “percent change in expression of Granzyme B” value (nTreg) of the same compound?
Answer: +393.7%

Question: And the “percent change in expression of INFγ” value (nTreg)?
Answer: +99.6%

Question: What about the “percent change in expression of PD1” value (nTreg) of the same compound?
Answer: +474.2%

Question: And the “percent change in expression of TGFβ” value (nTreg)?
Answer: +69.3%

Question: And the “CTLA4 up or down regulated” value (PD1 + Treg)?
Answer: up regulated (cut off values identified in preliminary studies (25% change compared with baseline at active disease))

Question: What about the “FoxP3 up or down regulated” value (PD1 + Treg) of the same compound?
Answer: up regulated (cut off values identified in preliminary studies (25% change compared with baseline at active disease))

Question: What about the “Granzyme B up or down regulated” value (PD1 + Treg) of the same compound?
Answer: up regulated (cut off values identified in preliminary studies (25% change compared with baseline at active disease))

Question: And the “IL-10 up or down regulated” value (PD1 + Treg)?
Answer: up regulated (cut off values identified in preliminary studies (25% change compared with baseline at active disease))

Question: And the “INFγ up or down regulated” value (PD1 + Treg)?
Answer: up regulated (cut off values identified in preliminary studies (25% change compared with baseline at active disease))

Question: What about the “PD1 up or down regulated” value (PD1 + Treg) of the same compound?
Answer: up regulated (cut off values identified in preliminary studies (25% change compared with baseline at active disease))

Question: And the “Perforin up or down regulated” value (PD1 + Treg)?
Answer: up regulated (cut off values identified in preliminary studies (25% change compared with baseline at active disease))

Question: And the “TGFβ up or down regulated” value (PD1 + Treg)?
Answer: up regulated (cut off values identified in preliminary studies (25% change compared with baseline at active disease))

Question: And the “percent change in expression of FoxP3” value (PD1 + Treg)?
Answer: +124.1%

Question: And the “percent change in expression of Granzyme B” value (PD1 + Treg)?
Answer: +213.8%

Question: And the “percent change in expression of IL-10” value (PD1 + Treg)?
Answer: 168.8%

Question: What about the “percent change in expression of INFγ” value (PD1 + Treg) of the same compound?
Answer: +355.0%

Question: And the “percent change in expression of PD1” value (PD1 + Treg)?
Answer: 290.3%

Question: What about the “percent change in expression of Perforin” value (PD1 + Treg) of the same compound?
Answer: +288.7%

Question: And the “percent change in expression of TGFβ” value (PD1 + Treg)?
Answer: +254.4%

Question: And the “suppressive capability of Treg to suppress effector proliferation” value (Treg)?
Answer: enhanced
